Reference: ChEMBL document CHEMBL3994622, “Design and synthesis of new RAF kinase-inhibiting antiproliferative quinoline derivatives. Part 2: Diarylurea derivatives” (Eur J Med Chem, 2017)

Key:
Format in all cases: functional
[1] = system: OVCAR-3; assay: Growth inhibition of human OVCAR3 cells incubated for 48 hrs by sulforhodamine B assay; conditions: OVCAR-3, 48 h
[2] = system: K562; assay: Growth inhibition of human K562 cells incubated for 48 hrs by sulforhodamine B assay; conditions: K562, 48 h
[3] = system: 786-0; assay: Growth inhibition of human 786-0 cells incubated for 48 hrs by sulforhodamine B assay; conditions: 786-0, 48 h
[4] = system: Malme-3M; assay: Growth inhibition of human MALME-3M cells incubated for 48 hrs by sulforhodamine B assay
[5] = system: SK-MEL-5; assay: Growth inhibition of human SK-MEL-5 cells incubated for 48 hrs by sulforhodamine B assay; conditions: SK-MEL-5, 48 h
[6] = system: SK-OV-3; assay: Growth inhibition of human SKOV3 cells incubated for 48 hrs by sulforhodamine B assay; conditions: SK-OV-3, 48 h
[7] = system: RPMI-8226; assay: Growth inhibition of human RPMI8226 cells incubated for 48 hrs by sulforhodamine B assay; conditions: RPMI-8226, 48 h
[8] = system: NCI-H460; assay: Growth inhibition of human NCI-H460 cells incubated for 48 hrs by sulforhodamine B assay; conditions: NCI-H460, 48 h
[9] = system: SN12C; assay: Growth inhibition of human SN12C cells incubated for 48 hrs by sulforhodamine B assay
[10] = system: U-251; assay: Growth inhibition of human U251 cells incubated for 48 hrs by sulforhodamine B assay; conditions: U-251, 48 h
[11] = system: SF-539; assay: Growth inhibition of human SF539 cells incubated for 48 hrs by sulforhodamine B assay; conditions: SF-539, 48 h
[12] = system: PC-3; assay: Growth inhibition of human PC3 cells incubated for 48 hrs by sulforhodamine B assay; conditions: PC-3, 48 h
[13] = system: SNB-75; assay: Growth inhibition of human SNB75 cells incubated for 48 hrs by sulforhodamine B assay; conditions: SNB-75, 48 h
[14] = system: RXF 393; assay: Growth inhibition of human RXF393 cells incubated for 48 hrs by sulforhodamine B assay; conditions: RXF 393, 48 h
[15] = system: SW-620; assay: Growth inhibition of human SW620 cells incubated for 48 hrs by sulforhodamine B assay; conditions: SW-620, 48 h
[16] = system: HCT-15; assay: Growth inhibition of human HCT15 cells incubated for 48 hrs by sulforhodamine B assay; conditions: HCT-15, 48 h
[17] = system: MCF7; assay: Growth inhibition of human MCF7 cells incubated for 48 hrs by sulforhodamine B assay; conditions: MCF7, 48 h
[18] = system: A549; assay: Growth inhibition of human A549/ATCC cells incubated for 48 hrs by sulforhodamine B assay; conditions: A549, 48 h
[19] = system: IGROV-1; assay: Growth inhibition of human IGROV1 cells incubated for 48 hrs by sulforhodamine B assay; conditions: IGROV-1, 48 h
[20] = system: BT-549; assay: Growth inhibition of human BT549 cells incubated for 48 hrs by sulforhodamine B assay; conditions: BT-549, 48 h
[21] = system: M14; assay: Growth inhibition of human M14 cells incubated for 48 hrs by sulforhodamine B assay; conditions: M14, 48 h
[22] = system: CCRF-CEM; assay: Growth inhibition of human CCRF-CEM cells incubated for 48 hrs by sulforhodamine B assay
[23] = system: KM12; assay: Growth inhibition of human KM12 cells incubated for 48 hrs by sulforhodamine B assay; conditions: KM12, 48 h
[24] = system: CAKI-1; assay: Growth inhibition of human Caki1 cells incubated for 48 hrs by sulforhodamine B assay; conditions: CAKI-1, 48 h
[25] = system: SF-268; assay: Growth inhibition of human SF268 cells incubated for 48 hrs by sulforhodamine B assay; conditions: SF-268, 48 h
[26] = system: SNB-19; assay: Growth inhibition of human SNB19 cells incubated for 48 hrs by sulforhodamine B assay; conditions: SNB-19, 48 h
[27] = system: HL-60(TB); assay: Growth inhibition of human HL-60(TB) cells incubated for 48 hrs by sulforhodamine B assay; conditions: HL-60, 48 h
[28] = system: HT-29; assay: Growth inhibition of human HT-29 cells incubated for 48 hrs by sulforhodamine B assay; conditions: HT-29, 48 h
[29] = system: MDA-MB-435; assay: Growth inhibition of human MDA-MB-435 cells incubated for 48 hrs by sulforhodamine B assay; conditions: MDA-MB-435, 48 h
[30] = read-out: LC50 (the source's name)

Cc1nc2cc(O)c(O)cc2cc1Oc1ccc(NC(=O)Nc2ccc(Cl)c(Cl)c2)cc1
GI50 [1]: 8.52 µM
TGI [1]: 19.9 µM
CC50 [1, 30]: > 32.5 µM
GI50 [2]: 6.93 µM
LC50 (concentration killing 50% of cells) [2]: > 32.5 µM
TGI [2]: 29.6 µM
GI50 [3]: 7.67 µM
TGI [3]: 18.6 µM
CC50 [3, 30]: > 32.5 µM
GI50 [4]: 8.6 µM
TGI [4]: 26 µM
CC50 [4, 30]: > 32.5 µM
GI50 [5]: 5.94 µM
TGI [5]: 14.2 µM
CC50 [5, 30]: > 32.5 µM
GI50 [6]: 11.7 µM
TGI [6]: > 32.5 µM
CC50 [6, 30]: > 32.5 µM
GI50 [7]: 7.62 µM
LC50 (lethal concentration, 50% cell kill) [7]: > 32.5 µM
TGI [7]: 20.7 µM
GI50 [8]: 6.95 µM
TGI [8]: 15.8 µM
CC50 [8, 30]: > 32.5 µM
GI50 [9]: 8.97 µM
TGI [9]: 30.3 µM
CC50 [9, 30]: > 32.5 µM
GI50 [10]: 6.58 µM
TGI [10]: > 32.5 µM
CC50 [10, 30]: > 32.5 µM
GI50 [11]: 8.86 µM
TGI [11]: 22.7 µM
CC50 [11, 30]: > 32.5 µM
GI50 [12]: 4.36 µM
TGI [12]: > 32.5 µM
CC50 [12, 30]: > 32.5 µM
GI50 [13]: 7.73 µM
TGI [13]: 28.9 µM
CC50 [13, 30]: > 32.5 µM
GI50 [14]: 9.24 µM
TGI [14]: > 32.5 µM
CC50 [14, 30]: > 32.5 µM
GI50 [15]: 4.9 µM
LC50 [15]: > 32.5 µM
TGI [15]: > 32.5 µM
GI50 [16]: 5.47 µM
LC50 (lethal concentration, 50% net cell kill) [16]: > 32.5 µM
TGI [16]: > 32.5 µM
GI50 [17]: 8.7 µM
TGI [17]: > 32.5 µM
CC50 [17, 30]: > 32.5 µM
GI50 [18]: 8.99 µM
TGI [18]: 26.2 µM
CC50 [18, 30]: > 32.5 µM
GI50 [19]: 12.3 µM
TGI [19]: > 32.5 µM
CC50 [19, 30]: > 32.5 µM
GI50 [20]: 7.5 µM
TGI [20]: > 32.5 µM
CC50 [20, 30]: > 32.5 µM
GI50 [21]: 5.97 µM
TGI [21]: 13.8 µM
CC50 [21, 30]: 32 µM
GI50 [22]: 6.19 µM
TGI [22]: 21.8 µM
CC50 [22, 30]: > 32.5 µM
GI50 [23]: 9.64 µM
TGI [23]: 32 µM
CC50 [23, 30]: > 32.5 µM
GI50 [24]: 4.96 µM
TGI [24]: 30 µM
CC50 [24, 30]: > 32.5 µM
GI50 [25]: 8.45 µM
LC50 (50% lethal concentration) [25]: > 32.5 µM
TGI [25]: > 32.5 µM
GI50 [26]: 10.1 µM
TGI [26]: > 32.5 µM
CC50 [26, 30]: > 32.5 µM
GI50 [27]: 9.02 µM
TGI [27]: 22.4 µM
CC50 [27, 30]: > 32.5 µM
GI50 [28]: 11.9 µM
TGI [28]: > 32.5 µM
CC50 [28, 30]: > 32.5 µM
GI50 [29]: 6.99 µM
TGI [29]: > 32.5 µM
CC50 [29, 30]: > 32.5 µM
